In patent US10414759B2, “Phenylthiazoles and uses thereof” (Purdue Research Foundation, priority 2017, dated 2019):
In brackets after ≈: the same amount, converted by molar mass. Like-named read-outs stand apart in the source and are kept apart here.

Key:
MRSA (2658 RCMB) = assay: MIC against MRSA (2658 RCMB), broth dilution; format: cell-based, Staphylococcus aureus; settings: for MIC: Staphylococcus aureus
Description: Bacteria were cultured in cation-adjusted Mueller Hinton broth in a 96-well plate. Compounds, using triplicate samples, were added to the plate and serially diluted. […] Plates were visually inspected and the MIC was categorized as the concentration at which no visible growth of bacteria was observed. The average of triplicate MIC determinations is reported.
A bacterial solution equivalent to 0.5 McFarland standard was prepared and diluted in cation-adjusted Mueller-Hinton broth (CAMHB) to achieve a bacterial concentration of about 5×10^5 CFU/mL and seeded in 96-well plates. Enterococcus faecium was diluted in brain heart infusion broth. Enterococcus faecalis, Streptococcus pneumonia and Listeria monocytogenes were diluted in tryptone soya broth (TSB).

[1] = Metabolic stability in human liver microsomes; format: in vitro ADME; settings: pH 7.4, human liver microsomes, with NADPH, read-out: NADPH-dependent CLint
Description: The tested compounds were incubated in duplicate with human liver microsomes at 37° C. The reaction contained microsomal protein in 100 mM potassium phosphate, 2 mM NADPH, 3 mM MgCl2, pH 7.4. A control was run for each test agent omitting NADPH to detect NADPH-free degradation. At 0, 10, 20, 40, and 60 minutes, an aliquot was removed from each experimental and control reaction and mixed with an equal volume of ice-cold Stop Solution (methanol containing haloperidol, diclofenac, or other internal standard). Stopped reactions are incubated at least ten minutes at −20° C., and an additional volume of water was added. The samples were centrifuged to remove precipitated protein, and the supernatants were analyzed by LC/MS/MS to quantitate the remaining parent. Data are converted to % remaining by dividing by the time zero concentration value. Data are fit to a first-order decay model to determine half-life. Intrinsic clearance is calculated from the half-life and the protein concentrations: CLint=ln(2)/(T1/2 [microsomal protein]).

[2] = Table 1, MRSA (2658 RCMB), read-out: MIC ± SD
[3] = Table 7, initial screening, MRSA (2658 RCMB), read-out: minimum inhibitory concentration (MIC)
[4] = Table 7, initial screening, MRSA (2658 RCMB)

Row | SMILES | melting point | MIC (MRSA (2658 RCMB); [2]) | MIC (MRSA (2658 RCMB); [3]) | also measured
1 | CCCCc1ccc(-c2nc(C)c(C(=O)/C=C/N(C)C)s2)cc1 [Compound 4, (E)-1-[2-(4-Butylphenyl)-4-methylthiazol-5-yl]-3-(dimethyl-amino)prop-2-en-1-one] | 105.4 °C | > 25 µg/mL |  | 
2 | CCCCc1ccc(-c2nc(C)c(-c3ccnc(NC#N)n3)s2)cc1 [Compound 10, N-{4-[2-(4-Butylphenyl)-4-methylthiazol-5-yl]pyrimidin-2-yl}cyanamide] | 118 °C | 18.7 ± 2.3 µg/mL (≈ 53.5 µM) |  | antibacterial (anti-MRSA) activity, in words (MRSA (2658 RCMB); Table 1): dramatically decreased the antibacterial activity
3 | CCCCc1ccc(-c2nc(C)c(-c3ccnc(NC(N)=S)n3)s2)cc1 [Compound 12, 1-{4-[2-(4-Butylphenyl)-4-methylthiazol-5-yl]pyrimidin-2-yl}thiourea] | 212 °C (dec.) |  |  | MIC (MRSA (2658 RCMB); MRSA, read-out: MIC ± SD): > 25 µg/mL; antibacterial (anti-MRSA) activity, in words (MRSA (2658 RCMB); Table 1): complete abolishment of the anti-MRSA activity
4 | CCCCc1ccc(-c2nc(C)c(-c3ccnc(-c4cccnc4)n3)s2)cc1 [Compound 13, 2-(4-Butylphenyl)-4-methyl-5-[2-(38yridine-3-yl)pyrimidin-4-yl]thiazole] |  |  |  | antibacterial (anti-MRSA) activity, in words (MRSA (2658 RCMB); Table 1): exhibited no antibacterial activity; MIC ± SD (MRSA (2658 RCMB); Table 1, MRSA (2658 RCMB)): 17.2 ± 0.4 µg/mL (≈ 44.5 µM)
5 | CCCCc1ccc(-c2nc(C)c(-c3ccnc(-n4cccn4)n3)s2)cc1 [Compound 14, 2-(4-Butylphenyl)-5-[2-(1H-pyrazol-1-yl)pyrimidin-4-yl]-4-methylthiazole] | 163.7 °C | > 25 µg/mL |  | antibacterial (anti-MRSA) activity, in words (MRSA (2658 RCMB); Table 1): exhibited no antibacterial activity
6 | CCCCc1ccc(-c2nc(C)c(-c3ccnc(N4CCCC4)n3)s2)cc1 [Compound 15, 2-(4-Butylphenyl)-4-methyl-5-(2-(pyrrolidin-1-yl)pyrimidin-4-yl)thiazole] | 153.7 °C | > 25 µg/mL |  | antibacterial (anti-MRSA) activity, in words (MRSA (2658 RCMB); Table 1): lacks any antibacterial activity
7 | CCCCc1ccc(-c2nc(C)c(-c3ccn4ncnc4n3)s2)cc1 [Compound 16, 5-([1,2,4]Triazolo[1,5-a]pyrimidin-5-yl)-2-(4-butylphenyl)-4-methylthiazole] |  | > 25 µg/mL |  | 
8 | CCCCc1ccc(-c2nc(C)c(-c3ccnc(N=C(N(C)C)N(C)C)n3)s2)cc1 [Compound 19, 2-{4-[42-(4-Butylphenyl)-4-methylthiazol-5-yl]pyrimidin-2-yl}-1,1,3,3-tetramethyl guanidine] |  |  |  | antibacterial (anti-MRSA) activity, in words (MRSA (2658 RCMB); Table 1): revealed no antibacterial efficacy; MIC ± SD (MRSA (2658 RCMB); Table 1, MRSA (2658 RCMB)): >25 µg/mL
9 | Cc1nc(-c2ccc(C3=CCCCCC3)cc2)sc1-c1ccnc(N)n1 [Compound 30, 4-{2-[4-(Cyclohept-1-en-1-yl)phenyl]-4-methylthiazol-5-yl}pyrimidin-2-amine] | 164 °C | 3.12 µg/mL (≈ 8.61 µM) |  | 
10 | Cc1nc(-c2ccc(C3=CCCCCCC3)cc2)sc1-c1ccnc(N)n1 [Compound 31, 4-{2-[4-(Cyclooct-1-en-1-yl)phenyl]-4-methylthiazol-5-yl}pyrimidin-2-amine] | 188 °C | 5.6 ± 0.1 µg/mL (≈ 14.9 µM) |  | 
11 | Cc1nc(-c2ccc(C=C3CCCC3)cc2)sc1-c1ccnc(N)n1 [Compound 32, 4-{2-[4-(Cyclopentylidenemethyl)phenyl]-4-methylthiazol-5-yl}pyrimidin-2-amine] | 143 °C | 1.17 ± 0.19 µg/mL (≈ 3.36 µM) |  | 
12 | Cc1nc(-c2ccc(C=C3CCCCC3)cc2)sc1-c1ccnc(N)n1 [Compound 33, 4-{2-[4-(Cyclohexylidenemethyl)phenyl]-4-methylthiazol-5-yl}pyrimidin-2-amine] | 165 °C |  |  | MIC (MRSA (2658 RCMB); MRSA, read-out: MIC ± SD): 1.56 µg/mL (≈ 4.3 µM)
13 | Cc1nc(-c2ccc(/C=C/C3CCCC3)cc2)sc1-c1ccnc(N)n1 [Compound 34, (E)-4-{2-[4-(2-Cyclopentylvinyl)phenyl]-4-methylthiazol-5-yl}pyrimidin-2-amine] | 180.7 °C | 3.12 µg/mL (≈ 8.61 µM) |  | 
14 | Cc1nc(-c2ccc(/C=C/C3CCCCC3)cc2)sc1-c1ccnc(N)n1 [Compound 35, (E)-4-{2-[4-(2-Cyclohexylvinyl)phenyl]-4-methylthiazol-5-yl}pyrimidin-2-amine] | 189 °C | 3.12 µg/mL (≈ 8.29 µM) |  | 
15 | Cc1nc(-c2ccc(C(C)(C)C)cc2)sc1-c1ccnc(N2CCCC2)n1 [Compound 42] |  |  |  | minimum inhibitory concentration (MIC) (MRSA (2658 RCMB); [4]): >50 µg/mL
16 | Cc1nc(-c2ccc(C(C)(C)C)cc2)sc1-c1ccnc(N=C(N(C)C)N(C)C)n1 [Compound 59, N-2-(4-(2-(4-(tert-Butyl)phenyl)-4-methylthiazol-5-yl)pyrimidin-2-yl)-1,1,3,3-tetramethylguanidine] |  |  |  | minimum inhibitory concentration (MIC) (MRSA (2658 RCMB); [4]): >50 µg/mL
17 | CC(=O)CC(c1ccccc1)c1c(O)c2ccccc2oc1=O (stereo not drawn) [Warfarin, warfarin, reference compound] |  |  |  | microsomal CLint [1]: 0.3 µL/min/mg

The next lines start with results.

Row | melting point | MIC (MRSA (2658 RCMB); [2]) | MIC (MRSA (2658 RCMB); [3]) | SMILES | also measured
18 | 227 °C (dec.) | > 25 µg/mL |  | CCCCc1ccc(-c2nc(C)c(-c3ccnc(NC)n3)s2)cc1 [Compound 9, 4-[2-(4-Butylphenyl)-4-methylthiazol-5-yl]-N-methylpyrimidin-2-amine] | antibacterial (anti-MRSA) activity, in words (MRSA (2658 RCMB); Table 1): dramatically decreased the antibacterial activity
19 |  | 1.56 µg/mL (≈ 4.26 µM) |  | CCCCc1ccc(-c2nc(C)c(-c3ccnc(NC(=N)N)n3)s2)cc1 [Compound 18, 2-(4-Butylphenyl)-5-(2-guanidinylpyrimidin-4-yl)-4-methylthiazole] | MIC ± SD (MRSA (2658 RCMB); Table 1, MRSA (2658 RCMB)): 1.56 ± 0.10 µg/mL (≈ 4.26 µM)
20 |  | > 25 µg/mL |  | Cc1nc(-c2ccc(I)cc2)sc1-c1ccnc(N)n1 [Compound 23, 4-[2-(4-Iodophenyl)-4-methylthiazol-5-yl]pyrimidin-2-amine] | 
21 | 141 °C | 3.8 ± 0.4 µg/mL (≈ 10.9 µM) |  | Cc1nc(-c2ccc(C3=CCC(C)C3)cc2)sc1-c1ccnc(N)n1 (stereo not drawn) [Compound 28, 4-{4-Methyl-2-[4-(4-methylcyclopent-1-en-1-yl)phenyl]thiazol-5-yl}pyrimidin-2-amine] | 
22 |  |  | 6.25 µg/mL (≈ 19.3 µM) | Cc1nc(-c2ccc(C(C)(C)C)cc2)sc1-c1ccnc(N)n1 [Compound 40, 4-(2-(4-(tert-Butyl)phenyl)-4-methylthiazol-5-yl)pyrimidin-2-amine] | 
23 |  |  | 25 µg/mL (≈ 73.9 µM) | CNc1nccc(-c2sc(-c3ccc(C(C)(C)C)cc3)nc2C)n1 [Compound 41, 4-(2-(4-(tert-Butyl)phenyl)-4-methylthiazol-5-yl)-N-methylpyrimidin-2-amine] | 
24 |  |  | > 50 µg/mL | Cc1nc(-c2ccc(C(C)(C)C)cc2)sc1-c1ccnc(-c2cccnc2)n1 [Compound 43, 2-(4-(tert-Butyl)phenyl)-4-methyl-5-(2-(pyridin-3-yl)pyrimidin-4-yl)thiazole] | 
25 |  |  | > 50 µg/mL | Cc1nc(-c2ccc(C(C)(C)C)cc2)sc1-c1ccnc(N(C)C)n1 [Compound 50, 4-(2-(4-(tert-Butyl)phenyl)-4-methylthiazol-5-yl)-N,N-dimethylpyrimidin-2-amine] | 
26 |  |  | > 50 µg/mL | Cc1nc(-c2ccc(C(C)(C)C)cc2)sc1-c1ccnc(N2CCC2)n1 [Compound 51, 5-(2-(Azetidin-1-yl)pyrimidin-4-yl)-2-(4-(tert-butyl)phenyl)-4-methylthiazole] | 
27 |  |  | 25 µg/mL (≈ 63.4 µM) | Cc1nc(-c2ccc(C(C)(C)C)cc2)sc1-c1ccnc(N2CCOCC2)n1 [Compound 52, 4-(4-(2-(4-(tert-Butyl)phenyl)-4-methylthiazol-5-yl)pyrimidin-2-yl) morpholine] | 
28 |  |  | 6.25 µg/mL (≈ 16.4 µM) | Cc1nc(-c2ccc(C(C)(C)C)cc2)sc1-c1ccnc(N2CC(O)C2)n1 [Compound 53, 1-(4-(2-(4-(tert-Butyl)phenyl)-4-methylthiazol-5-yl)pyrimidin-2-yl)azetidin-3-ol] | 
29 |  |  | 1.56 µg/mL (≈ 4.6 µM) | Cc1nc(-c2ccc(C(C)(C)C)cc2)sc1-c1ccnc(NN)n1 [Compound 55, 2-(4-(tert-Butyl)phenyl)-5-(2-hydrazinylpyrimidin-4-yl)-4-methylthiazole] | 
30 |  |  | 1.56 µg/mL (≈ 4.26 µM) | Cc1nc(-c2ccc(C(C)(C)C)cc2)sc1-c1ccnc(NC(=N)N)n1 [Compound 56, 1-(4-(2-(4-(tert-Butyl)phenyl)-4-methylthiazol-5-yl)pyrimidin-2-yl)guanidine] | 
31 |  |  | 1.56 µg/mL (≈ 4.1 µM) | CNC(=N)Nc1nccc(-c2sc(-c3ccc(C(C)(C)C)cc3)nc2C)n1 [Compound 57, 1-(4-(2-(4-(tert-Butyl)phenyl)-4-methylthiazol-5-yl)pyrimidin-2-yl)-3-methylguanidine] | 
32 |  |  | 50 µg/mL (≈ 119 µM) | Cc1nc(-c2ccc(C(C)(C)C)cc2)sc1-c1ccnc(NC(=N)N2CCCC2)n1 [Compound 60, N-(4-(2-(4-(tert-Butyl)phenyl)-4-methylthiazol-5-yl)pyrimidin-2-yl) pyrrolidine-1-carboximidamide] | 
33 |  |  | 3.12 µg/mL (≈ 6.94 µM) | Cc1nc(-c2ccc(C(C)(C)C)cc2)sc1-c1ccnc(NC(=N)N2CCN(C)CC2)n1 [Compound 62, N-(4-(2-(4-(tert-Butyl)phenyl)-4-methylthiazol-5-yl)pyrimidin-2-yl)-4-methylpiperazine-1-carboximidamide] | 
